For 21 compounds, EC50 results are on record in patent US11845752B2, “Substituted imidazo[1,5-a]pyrazines for the treatment of hepatitis B” (ALIGOS THERAPEUTICS, INC., priority 2020, dated 2023).

Bounds are passed on as bounds.

The first assay concerns HBV. Description: HBV-DNA antiviral assay using HepG2.117 cells (intracellular HBV DNA by qPCR). It counts as cell-based, HBV genotype D. Conditions: HBV DNA inhibition, 3 days incubation, read-out: EC50. As to the method: The following assay procedure describes the HBV antiviral assay, using HepG2.117 cells, which carry a stably integrated genotype D HBV genome under the control of a Tet-off promoter, and intracellular HBV DNA quantification as endpoint. Cell viability is assessed in parallel by measuring the intracellular ATP content using ATPlite (Perkin Elmer).
On day 0, HepG2.117 cells (which are maintained in routine cell culture with doxycycline present in the medium at a final concentration of 1 μg/mL) were seeded in 96-well plates (white with clear bottom) at a density of 2.0×10^4 cells/well (0.1 mL/well) in medium without doxycycline to induce pgRNA transcription and subsequent formation of HBV particles. The cells were incubated at 37° C. and 5% CO2.
On day 1, medium was removed from each well, the test articles were diluted in culture medium without doxcycyline and 100 μL was added to cell culture wells (9 concentrations, 4-fold dilution). For each plate, 6 untreated (merely DMSO) wells were included. The final concentration of DMSO in the culture medium was 2%. Each plate was prepared in duplicate (one for HBV DNA extraction, one for ATPlite measurement). The cells were incubated at 37° C. and 5% CO2 for 3 days.
On day 4, cell viability was assessed using ATPlite and cell lysates were prepared for HBV DNA extraction and subsequent quantification by qPCR.
Medium was removed from each well and 100 μL of 0.33% NP-40 in H2O was added to each well. Plates were sealed, incubated at 4° C. for 5 mins, vortexed extensively and centrifuged briefly. Next, 35 μL of lysate was added to 65 μL QuickExtract DNA Extraction Solution (Epicentre) in a PCR plate for each well. PCR plate was incubated at 65° C. for 6 mins, 98° C. for 2 mins and finally cooled to 4° C. HBV DNA was then quantified by qPCR with HBV-specific primers and probes as specified in Table 1 using the Bio-Rad SSOAdvanced Universal Probes Supermix on a CFX96 machine (Bio-Rad). The PCR cycle program consisted of 95° C. for 3 mins, followed by 40 cycles at 95° C. for 10 sec and 60° C. for 30 sec.
A DNA standard was prepared by dilution of an IDT gBlock corresponding to the amplicon with concentrations ranging from 10^2 to 10^8 copies/input (i.e. per 4 μL) and used to generate a standard curve by plotting Cq values vs. HBV DNA standard concentration. The quantity of HBV DNA in each sample was determined by interpolating from the standard curve.
Cell viability was calculated as follows: % Cell viability=(luminescence value of test sample)/(average luminescence value of 2% DMSO control)×100%. HBV DNA inhibition was calculated as follows: 100−(HBV DNA copy number of test sample)/(average HBV DNA copy number of 2% DMSO control)×100%. No normalization to entecavir was required due to the excellent dynamic window of this assay. The CC50, EC50 and EC90 values were determined by dose-response curves fitted using non-linear regression.
On the technique in general: Quantitative PCR measures a nucleic acid by following its amplification.
The EC50 is the concentration that produces a half-maximal response. In the case of `CC1Cn2c(c(C(=O)NCc3ccccc3-c3ccncn3)n(-c3ccc(OC4CC4)cc3)c2=O)CN1C(=O)c1ccc(Br)c(C(F)(F)F)c1` (single isomer, unassigned) [Compound 13b, 7-[4-bromo-3-(trifluoromethyl)benzoyl]-2-[4-(cyclopropoxy)phenyl]-6-methyl-3-oxo-N-[(2-pyrimidin-4-ylphenyl)methyl]-6,8-dihydro-5H-imidazo[1,5-a]pyrazine-1-carboxamide], the EC50 is less than 50 nM.

With `CC1Cn2c(c(C(=O)NCc3ccccc3-c3ncccn3)n(-c3ccc4c(c3)nnn4CC(F)(F)F)c2=O)CN1C(=O)c1ccc(Br)c(C(F)(F)F)c1` (single isomer, unassigned) [Compound 103b], the EC50 is less than 50 nM.

`CC1Cn2c(c(C(=O)NCc3ccccc3-n3cc(N)cn3)n(-c3ccc(OC4CC4)cc3)c2=O)CN1C(=O)c1ccc(Br)c(Cl)c1` (single isomer, unassigned) [Compound 19a]: the concentration for a half-maximal effect (EC50) lay within 500 to 5000 nM.

For `CC1Cn2c(c(C(=O)NCc3ccccc3-c3ccncn3)n(-c3ccc4oc(N)nc4c3)c2=O)CN1C(=O)c1ccc(Br)c(C(F)(F)F)c1` (single isomer, unassigned) [Compound 93b, (6S*)-2-(2-amino-1,3-benzoxazol-5-yl)-7-[4-bromo-3-(trifluoromethyl)benzoyl]-6-methyl-3-oxo-N-{[2-(pyrimidin-4-yl)phenyl]methyl}-5H,6H,8H-imidazo[1,5-a]pyrazine-1-carboxamide], the 50% effective concentration (EC50) fell in the range of 50 to 500 nM.

For the compound `CC1Cn2c(c(C(=O)NCc3ccccc3-c3nccc(C(F)(F)F)n3)n(-c3ccc(N4CC5(CN(C)C5)C4)cc3)c2=O)CN1C(=O)c1ccc(Br)c(C(F)(F)F)c1` (single isomer, unassigned) [Compound 98b], the EC50 was in the range of 500 to 5000 nM.

Take `Cc1nc2cc(-n3c(C(=O)NCc4ccccc4-c4ccncn4)c4n(c3=O)CC(C)N(C(=O)c3ccc(Br)c(C(F)(F)F)c3)C4)ccc2o1` (single isomer, unassigned) [Compound 48b]: the 50% effective concentration (EC50) is less than 50 nM.

In the case of `CC1Cn2c(c(C(=O)NCc3ccccc3-c3ncccn3)n(-c3ccc4c(cnn4C4CNC4)c3)c2=O)CN1C(=O)c1ccc(Br)c(C(F)(F)F)c1` (single isomer, unassigned) [Compound 109b], the EC50 was in the range of 500 to 5000 nM.

The same assay, now with this note: Hepatitis B virus, HepG2.117, 72 h, HBV DNA inhibition, 3 days incubation, read-out: EC50.
Regarding `CC1Cn2c(c(C(=O)NCc3ccccc3-c3ccccn3)n(-c3ccc(N4CC5(CN(C)C5)C4)cc3)c2=O)CN1C(=O)c1ccc(Br)c(C(F)(F)F)c1` (single isomer, unassigned) [Compound 77a], the EC50 was less than 50 nM.

As to `O=C(NCc1ccccc1-c1ncccn1)c1c2n(c(=O)n1-c1ccc(OC3CC3)cc1)C[C@@H](COCc1ccccc1)N(C(=O)c1ccc(Br)c(C(F)(F)F)c1)C2` (stereo in doubt) [Compound 130, 6-(benzyloxymethyl)-7-[4-bromo-3-(trifluoromethyl)benzoyl]-2-[4-(cyclopropoxy)phenyl]-3-oxo-N-[(2-pyrimidin-2-ylphenyl)methyl]-6,8-dihydro-5H-imidazo[1,5-a]pyrazine-1-carboxamide], the concentration giving a half-maximal response (EC50) was in the range of 500 to 5000 nM.

For `CC1Cn2c(c(C(=O)NCc3ccccc3-c3ncccn3)n(-c3ccc(OC4CC4)cc3)c2=O)CN1C(=O)c1ccc(Br)c(Cl)c1` (single isomer, unassigned) [Compound 3a, (6S*)-7-(4-bromo-3-chloro-benzoyl)-2-[4-(cyclopropoxy)phenyl]-6-methyl-3-oxo-N-[(2-pyrimidin-2-ylphenyl)methyl]-6,8-dihydro-5H-imidazo[1,5-a]pyrazine-1-carboxamide], the EC50 is less than 50 nM.

Consider `C[C@H]1Cn2c(c(C(=O)NCc3ccccc3-c3ccccn3)n(-c3ccc(OC[C@@](C)(O)C(F)(F)F)cc3)c2=O)CN1C(=O)c1ccc(Br)c(C(F)(F)F)c1` (stereo in doubt) [Compound 89b, rac-(6S)-7-[4-bromo-3-(trifluoromethyl)benzoyl]-6-methyl-3-oxo-N-[[2-(2-pyridyl)phenyl]methyl]-2-[4-[rac-(2R)-3,3,3-trifluoro-2-hydroxy-2-methyl-propoxy]phenyl]-6,8-dihydro-SH-imidazo[1,5-a]pyrazine-1-carboxamide], for which the concentration giving a half-maximal response (EC50) was less than 50 nM.

As to `CNc1cc(-c2ccccc2CNC(=O)c2c3n(c(=O)n2-c2ccc(OC4CC4)cc2)C[C@@H](C)N(C(=O)c2ccc(Br)c(Cl)c2)C3)ncn1` (stereo in doubt) [Compound 39a, rac-(6R)-7-(4-bromo-3-chloro-benzoyl)-2-[4-(cyclopropoxy)phenyl]-(methylamino)pyrimidin-4-6-methyl-N-[[246-yl]phenyl]methyl]-3-oxo-6,8-dihydro-5H-imidazo[1,5-a]pyrazine-1-carboxamide], the EC50 lay within 50 to 500 nM.

With `CNc1nc2cc(-n3c(C(=O)NCc4ccccc4)c4n(c3=O)CCN(C(=O)c3ccc(Br)c(Cl)c3)C4)ccc2o1` [Compound 127, N-benzyl-7-(4-bromo-3-chloro-benzoyl)-2-[2-(methylamino)-1,3-benzoxazol-5-yl]-3-oxo-6,8-dihydro-5H-imidazo[1,5-a]pyrazine-1-carboxamide], the EC50 fell in the range of 500 to 5000 nM.

With `CC1Cn2c(c(C(=O)NCc3ccccc3-c3ccncn3)n(-c3ccc(OCC4(O)CC4)cc3)c2=O)CN1C(=O)c1ccc(Br)c(C(F)(F)F)c1` (single isomer, unassigned) [Compound 74b], the EC50 was less than 50 nM.

With `CC1Cn2c(c(C(=O)NCc3ccccc3-c3ncccn3)n(-c3ccc4c(cnn4CC(F)(F)F)c3)c2=O)CN1C(=O)c1ccc(Br)c(C(F)(F)F)c1` (single isomer, unassigned) [Compound 100a], the EC50 was less than 50 nM.

Consider `C[C@H]1Cn2c(c(C(=O)NCc3ccccc3-c3ncccn3)n(-c3ccc4nn(C[C@@H](O)C(F)(F)F)cc4c3)c2=O)CN1C(=O)c1ccc(Br)c(C(F)(F)F)c1` (mixture of isomers) [Compound 105b, (6SR)-7-[4-bromo-3-(trifluoromethyl)benzoyl]-6-methyl-3-oxo-N-[(2-pyrimidin-2-ylphenyl)methyl]-2-[2-[(2R)-3,3,3-trifluoro-2-hydroxy-propyl]indazol-5-yl]-6,8-dihydro-5H-imidazo[1,5-a]pyrazine-1-carboxamide], for which the EC50 was 50 to 500 nM.

On to `Cc1cnn(-c2ccccc2CNC(=O)c2c3n(c(=O)n2-c2ccc(OC4CC4)cc2)CC(C)N(C(=O)c2ccc(Br)c(Cl)c2)C3)c1` (single isomer, unassigned) [Compound 6a, 7-(4-bromo-3-chloro-benzoyl)-2-[4-(cyclopropoxy)phenyl]-6-methyl-N-[[2-(4-methylpyrazol-1-yl)phenyl]methyl]-3-oxo-6,8-dihydro-5H-imidazo[1,5-a]pyrazine-1-carboxamide], for which the EC50 fell in the range of 50 to 500 nM.

On to `CC1Cn2c(c(C(=O)NCc3ccccc3-c3ccccn3)n(-c3ccc(OC[C@@H](C)O)cc3)c2=O)CN1C(=O)c1ccc(Br)c(C(F)(F)F)c1` (single isomer, unassigned) [Compound 60a], for which the concentration for a half-maximal effect (EC50) lay in the range of 50 to 500 nM.

On to `O=C(NCc1ccccc1-c1ncccn1)c1c2n(c(=O)n1-c1ccc(OC3CC3)cc1)C[C@@H](CO)N(C(=O)c1ccc(Br)c(C(F)(F)F)c1)C2` (stereo in doubt) [Compound 131, 7-[4-bromo-3-(trifluoromethyl)benzoyl]-2-[4-(cyclopropoxy)phenyl]-6-(hydroxymethyl)-3-oxo-N-[(2-pyrimidin-2-ylphenyl)methyl]-6,8-dihydro-5H-imidazo[1,5-a]pyrazine-1-carboxamide], for which the concentration giving a half-maximal response (EC50) fell in the range of 500 to 5000 nM.

As to `C[C@H]1Cn2c(c(C(=O)NCc3ccccc3-c3ncccn3)n(-c3ccc(N4CC5(CN(C)C5)C4)cc3)c2=O)CN1C(=O)c1ccc(Br)c(C(F)(F)F)c1` (racemic) [Compound 78b, rac-(6S)-7-[4-bromo-3-(trifluoromethyl)benzoyl]-6-methyl-2-[4-(6-methyl-2,6-diazaspiro[3.3]heptan-2-yl)phenyl]-3-oxo-N-[(2-pyrimidin-2-ylphenyl)methyl]-6,8-dihydro-SH-imidazo[1,5-a]pyrazine-1-carboxamide], the 50% effective concentration (EC50) lay in the range of 50 to 500 nM.

For the compound `CC1Cn2c(c(C(=O)NCc3ccccc3-c3cccnn3)n(-c3ccc(OC[C@H](C)O)cc3)c2=O)CN1C(=O)c1ccc(Br)c(C(F)(F)F)c1` (single isomer, unassigned) [Compound 57a], the 50% effective concentration (EC50) was in the range of 50 to 500 nM.
